Experimental data taken from PMC3603449, “The affinity purification and characterization of ATP synthase complexes from mitochondria” (Open Biology, 2013).

Biological target: T1, bovine F1Fo-ATPase (F-ATP synthase), F1 catalytic site (Bos taurus, UniProt P00829+P19483)
T1 construct: gene ATP5F1B; native purification from heart mitochondria; with ATP synthase F(1) complex subunit gamma, mitochondrial; ATP synthase F(1) complex subunit delta, mitochondrial; ATP synthase F(1) complex subunit epsilon, mitochondrial; ATP synthase F(0) complex subunit C1, mitochondrial (subunit c); ATP synthase F(0) complex subunit a; ATP synthase subunit O, mitochondrial (OSCP); ATP synthase F(0) complex subunit B1, mitochondrial (subunit b); ATP synthase subunit d, mitochondrial; ATP synthase-coupling factor 6, mitochondrial (F6); ATP synthase protein 8 (A6L); ATP synthase subunit e, mitochondrial; ATP synthase subunit f, mitochondrial; ATP synthase subunit g, mitochondrial
Assay: ATP synthesis in proteoliposomes with bacteriorhodopsin, luciferin-luciferase
Format: biochemical
Settings: turnover only; phosphate, pH 7.4, white light, I1-60GFP present

Nc1ncnc2c1ncn2[C@@H]1O[C@H](COP(=O)(O)OP(=O)(O)O)[C@@H](O)[C@H]1O [ADP]
ATP synthesis in proteoliposomes with bacteriorhodopsin, luciferin-luciferase: On illumination with white light, ATP was synthesized in a linear manner
